The record followed here is patent US9598441B2, “Therapeutic compounds and methods” (Wayne State University, priority 2011, dated 2017).

SMILES strings stand for the structures.

The assay concerns drug (ADR or TAM)-resistant MCF-7 HBC cells. The experiment in a line: MTT cell viability assay, drug-resistant cells. It counts as cell-based, human. The source says:
Routine maintenance and culture of MDA-MB-231, MDA-MB-468, SKBR-3 (all lack ER and have mutant p53), MCF-7, T47D (both have ER and wild-type p53) HBC cells (Runnebaum, I. B., Nagarajan, M., Bowman, M., Soto, D., and Sukumar, S. (1991). Proc. Natl. Acad. Sci. USA 88, 10657-10661), human prostate cancer PC3 and LnCAP cells, HCT-116 human colon cancer, human pancreatic cancer PANC-1 and BxPC-3, Burkett lymphoma Raji, diffuse large B-cell lymphoma WSU-DLCL2, follicular lymphoma WSU-FSCCL cells, cervical cancer HeLa, human mesothelial Met5a, human pleural malignant mesothelioma (MPM), murine MPM AB12 cells (Wang, Y., Rishi, A. K., Puliyappadamba, V. T., Sharma, S., Yang, H., Tarca, A., Dou, Q. P., Lonardo, F., Ruckdeschel, J. C., Pass, H. I., Wali, A. (2010) Can. Chemother. […]
Logarithmically growing cells were either untreated or treated with different agents for various time periods. […] The cell growth inhibition was assessed by using MTT assay. […]

Consider `O=C1N(Cc2ccccc2Cl)c2ccccc2C12NN=C(c1ccccc1)S2` (stereo not shown) [CFM-4, 1-(2-chlorobenzyl)-5′-phenyl-3′H-spiro[indoline-3,2′-[1,3,4]thiadiazol]-2-one], for which the “proliferation of drug-resistant MCF-7 cells (MTT)” value was “inhibited proliferation”.
